Assay [1] has as its system MET pathway in NCI-H596 cells. The assay can be described thus: MET and ERK phosphorylation in NCI-H596 cells, immunoblot. The assay is classed as cell-based, human. Conditions: fold change relative to control, HGF 50 ng/ml, antibody 10 μg/ml. The procedure: 250,000 NCI-H596 cells were seeded in a 12 well plate and cultured in RPMI Media supplemented with 10% FBS. […] The cells were subsequently incubated in 5% CO2 at 37° C. After 0, 2, 6 or 18 hours, cell lysates were prepared, protein content was normalized and immunoblot analysis was performed. MET phosphorylation and ERK phosphorylation were quantified with the ImageJ image processing program (T. Collins, BioTechniques 43: S25-S30, 2007). Phosphorylation levels were normalized to the Tubulin loading control and are expressed as fold change relative to control treatment.
(In general: Immunoblotting shows a protein as a band on a membrane.)

In the next assay the test system is NCI-H596 cells. The assay can be described thus: NCI-H596 growth in soft agar, AlamarBlue, two weeks. The assay is classed as cell-based, human. The note with it: antibody 5 μg/ml (combination 2.5 μg/ml each), HGF 100 ng/mL. As to the method: The effect of a MET×MET bispecific antibody on the growth of human non-small cell lung cancer (NSCLC) cells (NCI-H596) was assessed in vitro. 10,000 NCI-H596 lung adenosquamous carcinoma cells (Nair et al., J. Nat'l. Cancer Inst. 86(5): 378-383, 1994) were seeded in 96 well plates on a layer of 0.66% agar in media supplemented with 1% fetal bovine serum (FBS). The cells were cultured in RPMI 1640 media supplemented with 1% FBS with 0.3% agarose. […] The cells were subsequently incubated with 5% CO2 at 37° C. After two weeks, relative cell growth was determined by measuring the reduction of the indicator dye, ALAMAR BLUE® (Thermo Fischer Scientific, Waltham, Mass.), to its highly fluorescent form in a SPECTRAMAX® M3 plate reader (Molecular Devices, Sunnyvale, Calif.). Increasing fluorescence correlates with cell growth. Table 18 and FIG. 14 depict the relative NCI-H596 cell growth for each antibody treatment normalized to control (no treatment) NCI-H596 cell growth.

As to “HGF: hepatocyte growth factor, MET agonist ligand [reference compound]”, the “Phospho-ERK (mean ± SD)” value in assay [1] (2 hours) is on record as 16.7 ± 1.6; in assay [1] (6 hours) it was 12.4 ± 3.9; in assay [1] (18 hours) it was 12.4 ± 0.9. Also, the “Phospho-MET (mean ± SD)” value in assay [1] (2 hours) is reported as 202.3 ± 38.7; in assay [1] (6 hours), 38.9 ± 4.9; in assay [1] (18 hours), 59.2 ± 24.4. For the same substance, in the assay on NCI-H596 cells, the “Relative Cell Growth (n = 3)” value was 7.877.
